How the values were obtained:
pithed rats = assay: Blood pressure response to phenylephrine in pithed rats without/with arginase; format: in vivo; conditions: for Blood Pressure Increase With Arginase Ave. ± S.D.: after arginase; for difference in pressor response between control and endotoxic animals: phenylephrine 6 µg/Kg
Description: Animals were pithed as described in Example 1. Blood pressure measurements were obtained also as described in Example 1. Arginase was also prepared according to the method described in Example 1.
Both left and right jugular veins were cannulated for drug administration; and left jugular was used for bolus administration of phenylephrine and the right jugular vein was used for continuous infusion of arginase. All animals from both groups (Control and Endotoxin) received phenylephrine in sequential doses of 0.3, 1.0, 2.0, or 6.0 ug/Kg.
Endotoxin (15 mg/kg body weight) was given by intravenous injection 6 hrs before the experiment began; arginase (300 I.U./Min. for 20 min.) was given intravenously to each rat after the "Without Arginase" measurements were made.
For the second, third and fourth rats, the blood pressure increments were 14, 32 and 9 before arginase, respectively, and 9, 20 and 10 after arginase, respectively.

[1] = system: endotoxin-induced shock in dogs; assay: Endotoxin-induced hypotension in dogs (with nitroglycerin and control dogs); format: in vivo; conditions: Study 2: Nitroglycerin-treated dogs (n=3)
Description: Animals: Studies were carried out on 12 conditioned mongrel dogs (9 males and 3 females) weighing 22-32 kg (avg=25.3 kg). Animal care was in accordance with the recommendations of the American Association for Accreditation of Laboratory Animal Care, and met all standards prescribed by the Guide for the Care and Use of Laboratory Animals (Guide for the Care and Use of Laboratory Animals (1978) Dept. of Health, Education and Welfare, Washington, D.C. (Publ. No. 78-23). Animal protocols were approved by The University of Texas Animal Welfare committee. The dogs were fasted overnight prior to the day of experimentation. They were anesthetized with sodium pentobarbital (25 mg/kg i.v.). Dogs were then endotracheally intubated and ventilated with a piston-driven respirator (Harvard instruments) using room air at a tidal volume of 15 ml/kg and at a rate of 12 to 14 breaths per minute, adjusted to achieve a normal arterial pH and pCO2 (Instrumentation Laboratories lL1302 pH/Blood Gas Analyzer). Catheters were placed percutaneously into the femoral and pulmonary arteries; In the latter, a flow-directed thermal-dilation catheter was used (Abbott Critical Care Systems).
Physiologic measurements: Mean SAP and heart rate were continuously monitored (Parametron 7048 Monitoring System, Roche) and stored on a magnetic disk using an analog-to-digital converter (Scientific Solutions, Inc.). Cardiac output (CO) was determined as the mean of six measurements by thermal-dilution. Systemic vascular resistance was calculated as (SAP X80)/CO and expressed as dynes-sec/cm^5 (kg/s·cm^4).
Protocol: After the blood pressure and heart rate stabilized, endotoxin (40 µg/kg, in 10 ml of phosphate-buffered saline (PBS), pH 7.4) was infused i.v. over 2 minutes. This dose of endotoxin typically induces severe and often lethal cardiovascular collapse in the dog. Blood pressure was monitored, and when either SAP fell below 60 mm Hg or a stable nadir in systemic arterial pressure (SAP) was maintained for 10 minutes, L-NMA was administered (20 mg/kg in 5 ml of PBS i.v. over 1 min.). In most experiments, L-arginine (400 mg/kg in 20 ml PBS) was administered ten minutes later by i.v. infusion over 2 minutes. In control experiments, dogs without prior exposure to endotoxin received L-NMA alone. To simulate the hypotension observed in dogs receiving endotoxin, one group of dogs received a continuous i.v. infusion of nitroglycerin (2 mg/ml) at a rate adjusted to maintain the SAP at 60-70 mm Hg. Nitroglycerin-treated dogs then received L-NMA (20 mg/kg) and 20 minutes later L-arginine was administered ([…]).
Statistics: Statistical significance was evaluated using Student's test and either a one-tailed or two-tailed analysis as appropriate for comparisons.

[2] = Study #1: Control Animals, phenylephrine 0.3 µg/Kg
[3] = Study #1: Control Animals, phenylephrine 1.0 µg/Kg
[4] = Study #1: Control Animals, phenylephrine 2.0 µg/Kg
[5] = Study #1: Control Animals, phenylephrine 6.0 µg/Kg
[6] = Study #2: Endotoxic Animals, phenylephrine 0.3 µg/Kg
[7] = Study #2: Endotoxic Animals, phenylephrine 1.0 µg/Kg
[8] = Study #2: Endotoxic Animals, phenylephrine 2.0 µg/Kg
[9] = Study #2: Endotoxic Animals, phenylephrine 6.0 µg/Kg

SMILES: CNC[C@H](O)c1cccc(O)c1 [Phenylephrine, phenylephrine]
- Blood Pressure Increase Without Arginase Ave. ± S.D. (pithed rats; [2]): 17.8 ± 5.0 mm Hg
- Blood Pressure Increase With Arginase Ave. ± S.D. (pithed rats; [2]): 13.3 ± 2.5 mm Hg
- Blood Pressure Increase Without Arginase Ave. ± S.D. (pithed rats; [3]): 31.3 ± 4.0 mm Hg
- Blood Pressure Increase With Arginase Ave. ± S.D. (pithed rats; [3]): 22.5 ± 6.1 mm Hg
- Blood Pressure Increase Without Arginase Ave. ± S.D. (pithed rats; [4]): 51.0 ± 6.6 mm Hg
- Blood Pressure Increase With Arginase Ave. ± S.D. (pithed rats; [4]): 38.8 ± 9.1 mm Hg
- Blood Pressure Increase Without Arginase Ave. ± S.D. (pithed rats; [5]): 93.0 ± 10.3 mm Hg
- Blood Pressure Increase With Arginase Ave. ± S.D. (pithed rats; [5]): 79.8 ± 13.4 mm Hg
- Blood Pressure Increase Without Arginase Ave. ± S.D. (pithed rats; [6]): 2.2 ± 0.7 mm Hg
- Blood Pressure Increase With Arginase Ave. ± S.D. (pithed rats; [6]): 2.0 ± 0.6 mm Hg
- Blood Pressure Increase Without Arginase Ave. ± S.D. (pithed rats; [7]): 7.0 ± 1.1 mm Hg
- Blood Pressure Increase With Arginase Ave. ± S.D. (pithed rats; [7]): 9.0 ± 1.8 mm Hg
- Blood Pressure Increase Without Arginase Ave. ± S.D. (pithed rats; [8]): 13.6 ± 2.6 mm Hg
- Blood Pressure Increase With Arginase Ave. ± S.D. (pithed rats; [8]): 23.3 ± 5.3 mm Hg
- Blood Pressure Increase Without Arginase Ave. ± S.D. (pithed rats; [9]): 33.7 ± 9.6 mm Hg
- Blood Pressure Increase With Arginase Ave. ± S.D. (pithed rats; [9]): 48.5 ± 7.6 mm Hg
- difference in pressor response between control and endotoxic animals (pithed rats; animals given arginase): 31.3 mm Hg
- difference in pressor response between control and endotoxic animals (pithed rats; animals not given arginase): 59.3 mm Hg

SMILES: O=[N+]([O-])OCC(CO[N+](=O)[O-])O[N+](=O)[O-] [Nitroglycerin]
- Cardiac Output ([1]; means ± S.E., baseline 3.14 ± 0.21): 2.72 ± 0.27 L/min
- Heart Rate ([1]; means ± S.E., baseline 143.7 ± 12.1): 137.3 ± 5.0 beats/min
- Systemic Vascular Resistance ([1]; means ± S.E., baseline 3294 ± 74): 1924 ± 132 dynes-sec/cm^5
- Systemic Arterial Pressure ([1]; means ± S.E., continuous nitroglycerin (2 mg/ml) titrated to SAP 65 mm Hg, then L-NMA 20 mg/kg, then L-arginine, baseline 129.3 ± 10.2): 64.7 ± 2.7 mmHg
- Systemic Vascular Resistance ([1]; value in brackets): 1.924 ± 0.132 Kg/s·cm^4

— patent EP0663826B1, “AMINO ACIDS CONTAINING PARENTERAL FORMULATIONS FOR THE TREATMENT OF HYPOTENSION AND RELATED PATHOLOGIES” (BOARD OF REGENTS THE UNIVERSITY OF TEXAS SYSTEM, priority 1991, dated 1993)
